# Measurements as given in article PMC4710522, “A Novel Triazolopyridine-Based Spleen Tyrosine Kinase Inhibitor That Arrests Joint Inflammation” (PLoS ONE, 2016).
# Where two headings read alike, the source gives them in different places.
# Tests used:
# [1] = tested on: FcεR-dependent β-hexosaminidase release from LAD2 cells; test: LAD2 IgE-dependent beta-hexosaminidase release; format: cell-based, human
# Experimental: Cells were cultured in StemPro-34 media (Life Technologies) with 100 ng/ml human SCF (GIBCO) and stimulated as described by supplier. Briefly, LAD2 cells were gently dislodged from culture flask, added to 96-well round bottom plates, and sensitized with 0.05 μg/ml final concentration of NP-IgE (AbD Serotec, Oxford, UK) for 16 hours in a standard tissue culture incubator at 37C with 5% CO2. Cells were washed once and equilibrated in Tyrode’s Buffer (Sigma Chemicals, St. Louis, MO) for 3 hours, preincubated with CC-509 for 30 minutes, and stimulated with 0.1 μg/ml NP16-BSA (Biosearch Technologies, Novato, CA) for 90 minutes. Beta-hexosaminidase activity was measured in supernatants and solubilized cell pellets using p-Nitrophenyl N-acetyl-β-D-Glucosaminide substrate (Sigma Chemicals, St. Louis, MO) to generate a colorimetric signal that was measured in a SpectraMax (Molecular Devices) spectrophotometer at 405 nm. Percent release (% release) was calculated as described in Data Analysis section.
# For the TEL-Syk assay, the intensity values for the 700 and 800 channel were exported as text files in ActivityBase (IDBS, Guildford, UK) to derive the ratios that reflect kinase activity. For LAD2 experiments, enzyme activity values were exported as text files into ActivityBase to calculate “percent release” according to the formula: 100* supernatant OD405/ (supernatant OD405 + (pellet OD405*pellet dilution factor)). For the basophil and B-cells assays, flow cytometry data was exported from the FACS Array and processed using FloJo software package (TreeStar, Inc., Ashland, Oregon). For the JAK2 HEL and Ramos NFAT β-lactamase assays, the fluorescence values obtained at 460 nm and 530 nm were exported into ActivityBase to calculate response ratios. […] Evans blue dye extravasation was expressed as mean ± SEM and % inhibition for the test article groups was normalized to the cromolyn positive control. […] The mean data from each group was plotted and either the AUC(day 11–18) or % inhibition on day 18 was calculated. Data is expressed as mean ± SEM of each group with n = 6–12. […]
# [2] = tested on: primary human eosinophils; test: primary human eosinophils, IL-3 stimulated MCP-1 secretion; format: cell-based
# Experimental: Cells were purified from EDTA-treated human whole blood using Polymorphprep (VWR, Radnor, PA) according to the protocol provided by the supplier. Eosinophils were further purified using an Eosinophil Kit (Miltenyi, Auburn, CA) according to manufacturer’s instructions. Neutrophil and eosinophil cell pellets were incubated in phenol red-free RPMI (Life Technologies, Grand Island, NY) for 30 minutes, washed in Kreb’s Ringer buffer, and plated in 96-well white opaque plates (Perkin Elmer, Foster City, CA) for luminescence. Neutrophils were diluted with Kreb’s Ringer buffer containing luminol (200 μM final concentration, Sigma Chemicals, St. Louis, MO) and preincubated with CC-509 for 30 minutes at 37°C. Neutrophils were activated with 0.5 mg/mL final concentration of opsonized zymosan, incubated for 30 minutes at room temperature in the dark, and then read on an Envision 2104 Multilabel Reader (Perkin Elmer, Foster City, CA). Opsonized zymosan was prepared as follows: Zymosan A (Sigma Aldrich, St. Louis, MO) was boiled, washed, and resuspended to a final concentration of 20mg/ml in 150mM NaCl. […] For eosinophils, cells were stimulated with IL-3 (200 pM, R&D Systems, Minneapolis, MN) for 24 hours at which point supernatants were collected and assessed for MCP-1 (Mesoscale).
# [3] = male rats; cited from earlier work
# [4] = tested on: AMPK_r; test: SelectScreen kinase assay; format: biochemical, rat; conditions: 3 µM, KM ATP
# Experimental: Syk kinase mode of inhibition studies, including parameters described in Fig 1, were conducted on the LC3000 platform by Caliper Life Sciences (Hopkinton, MA) according to standard protocols developed by the supplier. […] Non-kinase enzyme assays and GPCR, ion channel, and transporter binding assays were run by CEREP (France). Non-GLP manual patch clamp hERG assays were run by ChanTest (Cleveland, Ohio). Vivid® Assay kits (Life Technologies) were used to measure the cytochrome P450 inhibition of the compound against CYP3A, CYP2C9, CYP2C19, CYP2D6, and CYP1A2, as described.
# Kinase activity was measured using either the Z’-Lyte® or the Adapta® protocols as part of the SelectScreen™ profiling service offered at Life Technologies (Grand Island, NY). For the single point measurements (Part A), CC-509 was kept constant at 3 µM while ATP concentrations [ATP] used were at the KM for ATP (KM ATP) for that specific enyzme, at 10 or 100 µM ATP (10 ATP or 100 ATP, respectively), as indicated. Values expressed as percent control (% control) relative to DMSO-only wells (uninhibited, 100%).
# Kinase activity was measured using either the Z’-Lyte® or the Adapta® protocols as part of the SelectScreen™ profiling service offered at Life Technologies (Grand Island, NY). […] Values expressed as percent control (% control) relative to DMSO-only wells (uninhibited, 100%).
SMILES,"IC50 ([1]; mean ± SD, minimum n = 3, read-out: IC50, IgE-mediated β-hexosaminidase release)",IC50 [2],exposure producing myelosuppression [3],% control [4],"IC50 ([1]; Homo sapiens, LAD2, mean ± SD, minimum n = 3, read-out: IC50, IgE-mediated β-hexosaminidase release)","IC50 ([1]; Homo sapiens, LAD2 FcεR, curve shown in figure, read-out: IC50 printed in Fig 3C panel)","IC50 ([2]; Homo sapiens, Eosinophil)"
"COc1cc(Nc2ncc(F)c(Nc3ccc4c(n3)NC(=O)C(C)(C)O4)n2)cc(OC)c1OC [R406, reference compound]",110 ± 70 nM,1410 ± 1730 nM,120 µM·h,–,–,–,–
"c1cc(CC2CCOCC2)n2nc(Nc3ccc4c(NC5CCOCC5)n[nH]c4c3)nc2c1 [CC-509, [3-(2H-3,4,5,6-tetrahydropyran-4-ylamino)(1H-indazol-6-yl)][5-(2H-3,4,5,6-tetrahydropyran-4-ylmethyl)(2H-1,2,4-triazolo[1,5-a]pyridin-2-yl)]amine]",–,–,–,84%,220 ± 130 nM,330 nM,110 ± 50 nM
